Assay results published in US20230285570A1, “THERAPEUTICALLY USEFUL CURE-PRO MOLECULES FOR E3 LIGASE MEDIATED DEGRADATION OF PROTEINS, AND METHODS OF MAKING AND USING THEM” (CORNELL UNIVERSITY, priority 2020, published 2023).
Entries after “also recorded” stand apart in the source; their conditions may differ.

Tests used:
Aiolos and Ikaros [1] = assay: Aiolos and Ikaros expression in Namalwa cells, Western blot; type: cell-based; settings: monomer alone, 100 nM-10 μM, 24 h
Protocol: (§1) Namalwa, Ramosm HeLa, MCF7, or HT29 HCT116 cells (2.5-3×10^6) were treated for 24 hours with the indicated compounds solubilized in DMSO. The cells were washed in ice-cold PBS and were then lysed in RIPA lysis buffer (150 mM NaCl, 5 mM EDTA, 1% NP-40, 0.5% sodium deoxycholate, 0.1% SDS, 50 mM Tris, pH 8.0.) with Roche protease inhibitor complete cocktail and phosphatase inhibitors (10 mM sodium fluoride, 10 mM sodium pyrophosphate, 1 mM sodium orthovanadate and 20 mM β-glycerophosphate). The total protein concentrations were determined by Bradford Protein Assay (Pierce) and 10-20 μg of protein was loaded onto 4-15% Tris-Glycine gradient gels (Biorad). After standard gel electrophoresis, the separated proteins were transferred to PVDF membrane by wet transfer. The immunoblots were then blocked for 1 hour in 5% skim milk in TBST or 5% BSA in TBST, according to manufacturer's instructions, before an overnight incubation at 4° C. with indicated antibodies and membranes. Membranes were then incubated with the appropriate horseradish peroxidase-conjugated secondary antibodies (1:5,000 dilution) for 1 h at room temperature and the bands were visualized using the Clarity Max Western ECL Substrate (Biorad) and the ChemiDoc Imaging System (Biorad). Signal was detected with ECL Western Blotting Substrate (Pierce) and X-ray film processed with a Konica SRX-101 X-ray film processor or captured by Bio-Rad's Chemidoc Imaging system.
(§2) Namalwa (FIG. 78) or Ramos (FIG. 79) cells (5×10^6) were treated for 24 h with the compounds solubilized in DMSO. Compounds were added at 100 nM-10 μM each. Standardized protein samples were electrophoresed and imaged as described in the immunoblotting section above. FIGS. 78 and 79 depict the effects of the E3 ubiquitin ligase CURE-PRO monomer ligands (100 nM-10 μM, 24 h) targeting Cereblon on the expression of Aiolos and Ikaros, two downstream proteins that are known to be ubiquitinated and degraded after IMiDs bind to CRBN.

Aiolos and Ikaros [2] = assay: Aiolos and Ikaros expression in Ramos cells, Western blot; type: cell-based; settings: monomer alone, 100 nM-10 μM, 24 h
Protocol: as §1, §2

SLC19A1 = assay: RT-PCR of c-MYC downstream target gene SLC19A1 in HeLa cells; type: cell-based, Human; settings: single compound, HeLa, 10 μM, 24 h
Protocol: The suppression of the expression of the downstream c-MYC target, SLC19A1, was measured by RT-PCR using Power SYBR® Green Cells-to-Ct™ Kit (Life Technologies). Adherent cells were plated on 96 well plates at 5,000 cells per well were treated for 24 h with monomer compounds and compounds capable of reversible interactions (1 nM-100 μM). Cells were subsequently washed in ice-cold PBS processed according to the manufacturer's instructions. Quantitative real-time PCR was performed using a ViiA™ 7 Real-time PCR System (Applied Biosystems, Foster City, Calif., USA). GAPDH and ACTB served as internal controls.
HeLa cells (1×10^4) were treated for 24 hours in 96 well plates with the compounds solubilized in DMSO. Compounds were added at 10 μM each and RNA expression measured by the Cells-to Ct method described above (Thermofisher).

c-MYC [3] = target: T1, c-MYC (Homo sapiens, UniProt P01106); assay: CURE-PRO-mediated c-MYC degradation in HCT1116 cells, Western blot or WES; type: cell-based; set-up: endogenous in cells; host or cells: HT29
T1 sequence (P01106 whole entry): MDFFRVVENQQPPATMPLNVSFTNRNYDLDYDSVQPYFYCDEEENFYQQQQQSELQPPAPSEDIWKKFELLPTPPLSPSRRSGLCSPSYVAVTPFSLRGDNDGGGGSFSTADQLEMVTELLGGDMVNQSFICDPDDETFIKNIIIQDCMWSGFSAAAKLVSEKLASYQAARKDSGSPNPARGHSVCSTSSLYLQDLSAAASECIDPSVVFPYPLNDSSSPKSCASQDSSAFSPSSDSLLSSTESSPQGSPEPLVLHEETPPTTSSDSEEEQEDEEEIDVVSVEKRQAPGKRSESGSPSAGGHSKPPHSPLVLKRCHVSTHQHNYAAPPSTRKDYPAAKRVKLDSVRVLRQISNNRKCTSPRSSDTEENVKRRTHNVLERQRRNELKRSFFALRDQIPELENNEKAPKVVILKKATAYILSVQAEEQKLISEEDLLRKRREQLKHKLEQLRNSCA
Protocol: as §1
WES Simple analysis was performed on WES system (ProteinSimple-Biotechne) according to the manufacturer's instructions. Total protein concentrations of cell lysates were determined by the Pierce BCA kit (Thermo Fisher). 3 μL of 0.3 μg/μL of the protein lysate was loaded onto a 12- to 230-kDa WES assay plate (ProteinSimple) where 300 nL sample was withdrawn through a capillary, subjected to electrophoretic separation of proteins by size, and followed by the simultaneous, HRP-based detection of proteins using the Anti-Rabbit Detection Module (Proteinsimple: #DM-001). The electropherograms were checked then the automatic peak detection was manually corrected if it was required.
HCT1116 cells (2.5×10^6) were treated for 24 h with the compounds solubilized in DMSO. Compounds were added at 10 nM-10 μM each. Standardized protein samples were electrophoresed and imaged as described in the immunoblotting or WES (Proteinsimple) sections above. c-MYC monomers, MYC-N20 (FIG. 100, a 10074-G5 derivative comprising diol linkers), and MYC-N10 (FIG. 101), MYC-N6 (FIG. 102), and MYC-N9 (FIG. 103) (10058-F4 derivatives comprising diol linkers), and MDM2 ligands, 8310 and 8312 (Nutlin 3a derivatives comprising boronic acid linkers) were combined in a 1:1 ratio.
HCT1116 cells (2.5×10^6) were treated for 24 h with the compounds solubilized in DMSO. Compounds were added at 1 μM-10 μM each.

c-MYC [4] = target: T1, c-MYC; assay: Summary of C-MYC degradation by CURE-PRO pairs, estimated from Western Blot or WES; type: cell-based; set-up: endogenous in cells; host or cells: HT29
Summary of the method: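 Namalwa, Ramos, HeLa, MCF7, HT29 or HCT116 cells treated 24 h with compounds in DMSO; RIPA lysates analysed by Western blot (ECL) or capillary WES immunodetection. Check mark denotes 30% to 70% or higher protein degradation.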

MV-4-11 cells = assay: CellTiter-Glo cell viability, MV-4-11 cells; type: cell-based; settings: monomer alone, MV-4-11, 24 h, 1 nM-100 μM
Protocol: CellTiter-Glo® 2.0 Cell Viability Assay (Promega) was carried out following the manufacturer's recommendations. Cells were seeded at a density of 1000 cells/well in a white 96 well plates (Corning, #3917) in a total volume of 100 μl with respective monomers, combinations of BRD ligands together with E3 ligase ligands or vehicle control treatment. After a 72 h incubation, 100 ul of the CellTiter-Glo® substrate was added per well and luminescence was read on a Spectramax M5 (Molecular Devices). Dose-response curves were generated using Graphpad Prism software.
MV-4-11 cells (5×10^4) were treated for 24 hours with the sample compounds solubilized in DMSO. The compounds were added at 1 nM-100 μM each. Cellular viability was determined using the CellTiter-Glo® Luminescent Cell Viability Assay (Promega) described above. FIGS. 19-22 depict the CURE-PRO-mediated loss of cellular viability for BRD monomers (JQ1 derivatives comprising of catechol linkers), and CRBN ligand, 8049 (pomalidomide derivatives comprising boronic acid linkers) combined in a 1:1 ratio.
MV-4-11 cells (1×10^4) were treated for 72 hours with the compounds solubilized in DMSO. Compounds were added at 10 nM-100 μM each. Cellular viability was determined using the CellTiter-Glo® Luminescent Cell Viability Assay (Promega) described above. FIGS. 47-54 depict the CURE-PRO-mediated loss of cellular viability for BRD monomers (JQ1 derivatives comprising of boronic acid linkers), and CRBN ligands, 8046, 8047 and 8066 (pomalidomide derivatives comprising diol linkers) combined in a 1:1 ratio.

SMILES	expression of Aiolos and Ikaros (Aiolos and Ikaros [1])	expression of Aiolos and Ikaros (Aiolos and Ikaros [2])	also measured
O=C1CCC(N2C(=O)c3cccc(CNC(=O)C4C[C@H]5C[C@@H]4[C@H](O)[C@@H]5O)c3C2=O)C(=O)N1 (stereo in doubt) [compound 8066, (1S,4R,5R,6S)—N-((2-(2,6-dioxopiperidin-3-yl)-1,3-dioxoisoindolin-4-yl)methyl)-5,6-dihydroxybicyclo[2.2.1]heptane-2-carboxamide]	largely maintain Aiolos and Ikaros expression levels	largely maintain Aiolos and Ikaros expression levels	–
Cc1sc2c(c1C)C(c1ccc(Cl)cc1)=N[C@@H](CC(=O)Nc1ccc(OCCOCCOCCOCCNc3cccc4c3C(=O)N(C3CCC(=O)NC3=O)C4=O)cc1)c1nnc(C)n1-2 (some centres unmarked) [ARV-825, reference compound]	–	–	suppression of SLC19A1 expression (SLC19A1): Complete suppression; also recorded: completely suppressed
CCc1ccc(/C=C2\SC(=O)N(CCOCCNC(=O)c3cccc(B(O)O)c3)C2=O)cc1 [MYC-E4]	–	–	c-MYC degradation (c-MYC [3]; 1:1 with MDM2 ligand 8313, HCT1116, 24 h, 1 μM-10 μM each): had no effect; c-MYC degradation (c-MYC [3]; 1:1 with MDM2 ligand 8314, HCT1116, 24 h, 1 μM-10 μM each): caused degradation of c-MYC protein at 10 μM; also recorded: Degradation was noted; c-MYC degradation (c-MYC [3]; monomer dosed alone, HCT1116, 24 h): No loss of c-MYC protein was noted; Degradation of C-MYC, combination with CRBN ligand 8047 (c-MYC [4]; Table 7, aryl-boronic acid MYC ligand + 8047): √ (A black check mark indicates efficacy of 30% to 70% or higher protein degradation); Degradation of C-MYC, combination with MDM2 ligand 8314 (c-MYC [4]; Table 8, aryl-boronic acid MYC ligand + 8314): √ (A black check mark indicates efficacy of 30% to 70% or higher protein degradation)
Nc1cccc2c1C(=O)N(C1CCC(=O)NC1=O)C2=O (centres unmarked) [Pomalidomide, pomalidomide, reference compound]	caused greater loss of Aiolos and Ikaros protein than the CURE-PRO derivatives at equimolar concentrations	caused greater loss of Aiolos and Ikaros protein than the CURE-PRO derivatives at equimolar concentrations	suppression of SLC19A1 expression (SLC19A1): no suppression
O=C1CCC(N2C(=O)c3cccc(CNC(=O)c4ccc(O)c(O)c4)c3C2=O)C(=O)N1 (centres unmarked) [compound 8046, N-((2-(2,6-dioxopiperidin-3-yl)-1,3-dioxoisoindolin-4-yl)methyl)-3,4-dihydroxybenzamide]	largely maintain Aiolos and Ikaros expression levels	largely maintain Aiolos and Ikaros expression levels	–
O=C1CCC(N2C(=O)c3cccc(CNC(=O)c4cccc(O)c4O)c3C2=O)C(=O)N1 (centres unmarked) [compound 8047, N-((2-(2,6-dioxopiperidin-3-yl)-1,3-dioxoisoindolin-4-yl)methyl)-2,3-dihydroxybenzamide]	largely maintain Aiolos and Ikaros expression levels	largely maintain Aiolos and Ikaros expression levels	–
O=C1CCC(N2C(=O)c3cccc(CNC(=O)c4ccc(B(O)O)cc4)c3C2=O)C(=O)N1 (centres unmarked) [compound 8048]	largely maintain Aiolos and Ikaros expression levels	largely maintain Aiolos and Ikaros expression levels	–
O=C1CCC(N2C(=O)c3cccc(CNC(=O)c4cccc(B(O)O)c4)c3C2=O)C(=O)N1 (centres unmarked) [compound 8049]	largely maintain Aiolos and Ikaros expression levels	largely maintain Aiolos and Ikaros expression levels	loss of cellular viability (MV-4-11 cells): little loss of viability was observed
